# Experimental data reported in PubChem BioAssay AID1963848 (Molecular Pharmacology Branch, DTP, NCI, 2024).
# Test system: 379773-124-R-J2-PDC spheroid viability
# Test: Anticancer human tumor 379773-124-R-J2-PDC patient-derived endometrial carcinoma cell line growth inhibition [POLQ]
# Details: spheroids with HUVEC and MSC; for IC50: curve of first compound; for viability, T/C: stronger effect = lower value
# How it was run: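 Patient-derived tumour cells were co-cultured with HUVEC and mesenchymal stem cells as multicellular spheroids at 37 °C. They were treated with POLQ inhibitors (novobiocin, ART-558, RP6685) alone or combined with other agents. Top concentrations were at or near clinical Cmax (otherwise 10 microM; SN-38 at 1 microM), decreasing in half-log steps.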
# [1] = second compound 0.0316 µM, first compound 0.0316 µM
# [2] = second compound 0.0316 µM, first compound 0.1 µM
# [3] = second compound 0.1 µM, first compound 0.0316 µM
# [4] = second compound 0.1 µM, first compound 0.1 µM
# [5] = second compound 0.316 µM, first compound 0.0316 µM
# [6] = second compound 0.316 µM, first compound 0.1 µM
# [7] = second compound 1 µM, first compound 0.0316 µM
# [8] = second compound 1 µM, first compound 0.1 µM
# [9] = second compound 3.16 µM, first compound 0.0316 µM
# [10] = second compound 3.16 µM, first compound 0.1 µM
# [11] = second compound 10 µM, first compound 0.0316 µM
# [12] = second compound 10 µM, first compound 0.1 µM
# 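Also: spheroids exposed to drugs for seven days before readout.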
# 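For viability, T/C in this document: percent viability relative to DMSO vehicle control taken as 100%.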
compound,measurement,setting,value
CC1COCCN1c1cc(C2(O)CC3CCC(C2)O3)c2cnn(-c3ccn[nH]3)c2n1 (centres undefined) + COC1C(OC(N)=O)C(O)C(Oc2ccc3c(O)c(NC(=O)c4ccc(O)c(CC=C(C)C)c4)c(=O)oc3c2C)OC1(C)C,IC50,second compound 0.0316 µM,66.1 nM
same,IC50,second compound 0.1 µM,99.4 nM
same,IC50,second compound 0.316 µM,103 nM
same,IC50,second compound 1 µM,75.8 nM
same,IC50,second compound 3.16 µM,86.8 nM
same,IC50,second compound 10 µM,76.5 nM
same,"viability, T/C",[1],74.8%
same,"viability, T/C",[2],36.6%
same,"viability, T/C","second compound 0.0316 µM, first compound 0.316 µM",14.5%
same,"viability, T/C","second compound 0.0316 µM, first compound 1 µM",10.8%
same,"viability, T/C","second compound 0.0316 µM, first compound 3.16 µM",7.52%
same,"viability, T/C","second compound 0.0316 µM, first compound 10 µM",2.19%
same,"viability, T/C",[3],82.9%
same,"viability, T/C",[4],49.9%
same,"viability, T/C","second compound 0.1 µM, first compound 0.316 µM",11.2%
same,"viability, T/C","second compound 0.1 µM, first compound 1 µM",8.68%
same,"viability, T/C","second compound 0.1 µM, first compound 3.16 µM",7.3%
same,"viability, T/C","second compound 0.1 µM, first compound 10 µM",2.55%
same,"viability, T/C",[5],90%
same,"viability, T/C",[6],51.2%
same,"viability, T/C","second compound 0.316 µM, first compound 0.316 µM",12.9%
same,"viability, T/C","second compound 0.316 µM, first compound 1 µM",10.9%
same,"viability, T/C","second compound 0.316 µM, first compound 3.16 µM",6.18%
same,"viability, T/C","second compound 0.316 µM, first compound 10 µM",2.42%
same,"viability, T/C",[7],77.8%
same,"viability, T/C",[8],41.4%
same,"viability, T/C","second compound 1 µM, first compound 0.316 µM",11.6%
same,"viability, T/C","second compound 1 µM, first compound 1 µM",10.2%
same,"viability, T/C","second compound 1 µM, first compound 3.16 µM",6.65%
same,"viability, T/C","second compound 1 µM, first compound 10 µM",1.98%
same,"viability, T/C",[9],71.9%
same,"viability, T/C",[10],47%
same,"viability, T/C","second compound 3.16 µM, first compound 0.316 µM",11.7%
same,"viability, T/C","second compound 3.16 µM, first compound 1 µM",9.21%
same,"viability, T/C","second compound 3.16 µM, first compound 3.16 µM",7.19%
same,"viability, T/C","second compound 3.16 µM, first compound 10 µM",2.23%
same,"viability, T/C",[11],75.4%
same,"viability, T/C",[12],42.4%
same,"viability, T/C","second compound 10 µM, first compound 0.316 µM",10.3%
same,"viability, T/C","second compound 10 µM, first compound 1 µM",9.86%
same,"viability, T/C","second compound 10 µM, first compound 3.16 µM",7.38%
same,"viability, T/C","second compound 10 µM, first compound 10 µM",2.73%
CC[C@@]1(O)C(=O)OCc2c1cc1n(c2=O)Cc2cc3c(CN(C)C)c(O)ccc3nc2-1 + Cc1cccc(N(C)C(=O)C2C(O)CCN2c2nc(C)cc(C(F)(F)F)c2C#N)c1,IC50,second compound 0.0316 µM,24.3 nM
same,IC50,second compound 0.1 µM,21.1 nM
same,IC50,second compound 0.316 µM,22.2 nM
same,IC50,second compound 1 µM,20.2 nM
same,IC50,second compound 3.16 µM,19.5 nM
same,IC50,second compound 10 µM,16.3 nM
same,"viability, T/C","second compound 0.0316 µM, first compound 0.000316 µM",90.3%
same,"viability, T/C","second compound 0.0316 µM, first compound 0.001 µM",89.1%
same,"viability, T/C","second compound 0.0316 µM, first compound 0.00316 µM",77.8%
same,"viability, T/C","second compound 0.0316 µM, first compound 0.01 µM",85.4%
same,"viability, T/C",[1],39.6%
same,"viability, T/C",[2],14.2%
same,"viability, T/C","second compound 0.1 µM, first compound 0.000316 µM",89.2%
same,"viability, T/C","second compound 0.1 µM, first compound 0.001 µM",88.6%
same,"viability, T/C","second compound 0.1 µM, first compound 0.00316 µM",84.1%
same,"viability, T/C","second compound 0.1 µM, first compound 0.01 µM",81.9%
same,"viability, T/C",[3],32.9%
same,"viability, T/C",[4],14%
same,"viability, T/C","second compound 0.316 µM, first compound 0.000316 µM",87.3%
same,"viability, T/C","second compound 0.316 µM, first compound 0.001 µM",77.5%
same,"viability, T/C","second compound 0.316 µM, first compound 0.00316 µM",85.4%
same,"viability, T/C","second compound 0.316 µM, first compound 0.01 µM",85.7%
same,"viability, T/C",[5],34.8%
same,"viability, T/C",[6],13.8%
same,"viability, T/C","second compound 1 µM, first compound 0.000316 µM",86.6%
same,"viability, T/C","second compound 1 µM, first compound 0.001 µM",83.3%
same,"viability, T/C","second compound 1 µM, first compound 0.00316 µM",95.1%
same,"viability, T/C","second compound 1 µM, first compound 0.01 µM",86.8%
same,"viability, T/C",[7],26.7%
same,"viability, T/C",[8],16%
same,"viability, T/C","second compound 3.16 µM, first compound 0.000316 µM",84.9%
same,"viability, T/C","second compound 3.16 µM, first compound 0.001 µM",87.7%
same,"viability, T/C","second compound 3.16 µM, first compound 0.00316 µM",93.3%
same,"viability, T/C","second compound 3.16 µM, first compound 0.01 µM",87%
same,"viability, T/C",[9],23%
same,"viability, T/C",[10],17.2%
same,"viability, T/C","second compound 10 µM, first compound 0.000316 µM",97.7%
same,"viability, T/C","second compound 10 µM, first compound 0.001 µM",95%
same,"viability, T/C","second compound 10 µM, first compound 0.00316 µM",86.4%
same,"viability, T/C","second compound 10 µM, first compound 0.01 µM",70.6%
same,"viability, T/C",[11],22.1%
same,"viability, T/C",[12],17.8%
